The values that follow come from patent US20250108038A1 (priority 2023, published 2025).

Structures are written as SMILES. “Also recorded” adds a separate entry of the source. Some results are limits rather than exact numbers.

One series has as its target T1, OAT3 (Homo sapiens, UniProt Q8TCC7).
T1 sequence (Q8TCC7 1-542): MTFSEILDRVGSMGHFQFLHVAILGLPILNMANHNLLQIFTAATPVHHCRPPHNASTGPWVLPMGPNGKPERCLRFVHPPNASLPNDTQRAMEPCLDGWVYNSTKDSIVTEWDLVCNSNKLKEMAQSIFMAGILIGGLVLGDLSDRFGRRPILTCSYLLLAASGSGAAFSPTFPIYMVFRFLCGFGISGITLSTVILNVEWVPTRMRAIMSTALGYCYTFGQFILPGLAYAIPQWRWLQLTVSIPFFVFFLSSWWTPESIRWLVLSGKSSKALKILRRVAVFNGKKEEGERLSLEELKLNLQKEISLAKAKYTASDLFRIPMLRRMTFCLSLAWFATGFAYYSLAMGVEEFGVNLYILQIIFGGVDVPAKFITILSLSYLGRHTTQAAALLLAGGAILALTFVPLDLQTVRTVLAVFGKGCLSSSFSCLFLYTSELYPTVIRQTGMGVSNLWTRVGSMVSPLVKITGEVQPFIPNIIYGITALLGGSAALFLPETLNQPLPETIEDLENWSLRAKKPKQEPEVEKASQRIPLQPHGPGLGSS
Briefly: Uptake transporter inhibition assay, OAT3 (estrone-3-sulfate). Particulars: for Maximum % inhibition: OAT3, HEK293 cells, E3S (1 μM), NIO: no inhibition observed. As to the method: (§1) Uptake experiments were performed using HEK293 cells stably expressing the respective uptake transporters. The assays were conducted according to the actual SOLVO uptake transporter assay protocols (PR-ASY-UPT-General Protocol for Uptake Transporter Inhibition Assays).
(§2) Cells were cultured at 37° C. in a humidified atmosphere containing 5% CO2 and were plated onto standard 96-well tissue culture plates.
(§3) Before the experiment, the medium was removed, and the cells were washed twice with 100 μL of pre-warmed (37° C.) assay buffer listed in Table 15. The cells were pre-incubated at 37° C. for 30 minutes in assay buffer containing the test article at appropriate concentrations (Table 16), appropriate solvents for solvent controls and the reference inhibitor for reference inhibitor wells. After the pre-incubation step solutions were removed. Uptake experiments were performed at 37° C. in 50 μL of assay buffer containing the probe substrate and the test article or solvent and controls.
(§4) After the experiment, cells were washed twice with 100 μL of appropriate cold buffer and lysed with 150 μL scintillation cocktail. Radiolabeled probe substrate transport was determined by liquid scintillation counting.
(§5) Uptake of the probe substrate in control cells provided background activity values for all data points.

The target in the next series is T2, OATP1B1 (Homo sapiens, UniProt Q9Y6L6).
T2 sequence (Q9Y6L6 1-691): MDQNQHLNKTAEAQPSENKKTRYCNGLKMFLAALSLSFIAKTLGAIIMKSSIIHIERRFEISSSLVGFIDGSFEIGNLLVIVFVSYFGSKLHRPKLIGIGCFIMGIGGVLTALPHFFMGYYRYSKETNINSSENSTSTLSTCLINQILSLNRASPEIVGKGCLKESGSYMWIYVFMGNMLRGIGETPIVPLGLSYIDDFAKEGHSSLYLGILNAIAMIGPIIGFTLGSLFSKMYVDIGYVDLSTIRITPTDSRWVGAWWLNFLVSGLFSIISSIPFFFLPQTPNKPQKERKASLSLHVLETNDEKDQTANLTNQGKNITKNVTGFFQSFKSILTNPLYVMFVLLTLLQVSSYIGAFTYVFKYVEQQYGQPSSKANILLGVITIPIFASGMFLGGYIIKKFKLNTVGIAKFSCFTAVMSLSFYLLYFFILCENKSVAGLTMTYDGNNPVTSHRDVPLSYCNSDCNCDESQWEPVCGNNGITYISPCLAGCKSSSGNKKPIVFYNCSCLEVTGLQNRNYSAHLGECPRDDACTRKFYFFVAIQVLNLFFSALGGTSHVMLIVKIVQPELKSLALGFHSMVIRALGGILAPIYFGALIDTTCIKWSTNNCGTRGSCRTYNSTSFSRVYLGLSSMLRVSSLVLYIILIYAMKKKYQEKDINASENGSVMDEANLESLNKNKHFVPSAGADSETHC
Briefly: Uptake transporter inhibition assay, OATP1B1 (estradiol-17-β-glucuronide). Particulars: for Maximum % inhibition: OATP1B1, HEK293 cells, E217βG (1 μM), NIO: no inhibition observed. As to the method:
as §1, §2, §3, §4, §5

In a further series the test system is rat gut microbiota. Briefly: Stability in rat gut microbiota. Particulars: rat fecal matter, 37° C., 0-120 min. As to the method:
FIG. 7A. […] Gut microbiota from rat and human sources were extracted and purified in PBS at pH 6.0 or 7.4. A stock solution of 10 mM was prepared and a 10 μL aliquot was added to extracted microorganisms at 0 min. […] Values represent mean+SEM of n=3 separate experiments.
FIG. 7B. […] Gut microbiota from rat and human sources were extracted and purified in PBS at pH 6.0 or 7.4. A stock solution of 10 mM was prepared and a 10 μL aliquot was added to extracted microorganisms at 0 min. […] Values represent mean+SEM of n=3 separate experiments.
Rat fecal material was obtained and weighed. One capsule of the raw probiotics was crushed and weighed prior to use. The weighed samples were then solubilized in PBS at pH 6.0 and 7.4 to extract microorganisms. The samples were centrifuged at 18,000×g for 10 min. to remove particulates and the supernatant was used to evaluate test article stability. An aliquot (50 μL) of the test article stock solutions were added to the fecal extract (final concentration 0.5 mM) and allowed to incubate at 37° C. […] The collected sample was quenched in acetonitrile/0.1% formic acid mixture.

[1] abbreviates: 2-concentration assay, up to 100 μM (Compound A up to 30 μM).
Setting [2] is: 10.00 μM nominal, 6.60 μM NSB corrected.
Setting [3] is: 100.00 μM nominal, 77.00 μM NSB corrected.
[4] abbreviates: 0.14 μM nominal, 0.09 μM NSB corrected, follow-up assay.
Setting [5] is: 1.24 μM nominal, 0.86 μM NSB corrected, follow-up assay.
[6] abbreviates: 11.11 μM nominal, 7.89 μM NSB corrected, follow-up assay.
The mark [7] stands for this setting: 33.33 μM nominal, 24.33 μM NSB corrected, follow-up assay.
Setting [8] is: 100.00 μM nominal, 100.00 μM NSB corrected, follow-up assay.
The mark [9] stands for this setting: […] nominal, 1.89 μM NSB corrected, follow-up assay.

As for `OC1(c2ccc(Cl)cc2)c2ccccc2C2=NCCN21` (centres unmarked) [Compound A, 5-(4-chlorophenyl)-2,3-dihydroimidazo[1,2-b]isoindol-5-ol, reference compound], the “Relative transporter specific accumulation” value is 97.60 ± 4.33 % of control at OAT3 (3.00 μM nominal); 89.65 ± 3.21 % of control on OAT3 (30.00 μM nominal); 96.77 ± 2.48 % of control on OATP1B1 (3.00 μM nominal, E217βG, Table 119); 94.38 ± 2.14 % of control at OATP1B1 (30.00 μM nominal, E217βG, Table 119). Also, the Transporter specific accumulation was 3,883.00 ± 158.50 cpm at OAT3 (3.00 μM nominal) and 3,566.67 ± 111.53 cpm at OAT3 (30.00 μM nominal). Also, the Maximum % inhibition result on OAT3 and at OATP1B1 was “NIO” in each case. The inhibition at 3 μM against OAT3 (human, Relative inhibition, 3.00 μM nominal) turned out to be 2%; on OATP1B1 (human), 3%. In addition, the inhibition at 30 μM came to 10% at OAT3 (human, Relative inhibition, 30.00 μM nominal) and 6% on OATP1B1 (human). Further, at OAT3 (up to 100 μM (Compound A up to 30 μM)), the “maximum inhibition of OAT3-mediated E3S accumulation” value was “did not inhibit; also recorded: not an in vitro inhibitor”. The “maximum inhibition of OATP1B1-mediated E217βG accumulation” value at OATP1B1 (setting [1]) is “did not inhibit; also recorded: not an in vitro inhibitor”.
Turning to `COCCOC1(c2ccc(Cl)cc2)c2ccccc2C2=NCCN21` (centres unmarked) [Compound I-4], the “% parent compound remaining” value in the series on rat gut microbiota (pH 6, 0.5 mM) is recorded as at least 100%; with rat gut microbiota (pH 7.4, 0.5 mM) it was at least 100%.
Take `Clc1ccc(C2(OCC3OCCO3)c3ccccc3C3=NCCN32)cc1` (centres unmarked) [Compound I-19]: the “% parent compound remaining” value with rat gut microbiota (pH 6, 0.5 mM) is “at or above 100% for all time points except 120 min”; in the series on rat gut microbiota (pH 7.4, 0.5 mM), “time-dependent decrease in the amount of parent compound present; also recorded: unstable”. Moreover, the Relative inhibition at OAT3 (setting [2]) came out at 5%; on OAT3 (setting [3]) it was 42%; at OATP1B1 (setting [4]), 0%; at OATP1B1 (setting [5]), 3%; at OATP1B1 (setting [2]) it was 25%; on OATP1B1 (setting [6]), 23%. For the same molecule, the Relative inhibition at OATP1B1 (setting [7]) worked out at 50%; at OATP1B1 (setting [3]), 87%; at OATP1B1 (setting [8]), 83%; at OATP1B1 (setting [9]) it was 5%. Also, the “Relative transporter specific accumulation” value is given as 95.18 ± 1.71 % of control at OAT3 (setting [2]); 57.83 ± 0.99 % of control at OAT3 (setting [3]); 99.91 ± 3.20 % of control at OATP1B1 (setting [4]); 96.63 ± 3.76 % of control on OATP1B1 (setting [5]); 75.21 ± 2.39 % of control on OATP1B1 (setting [2]); 77.32 ± 2.52 % of control on OATP1B1 (setting [6]). The “Relative transporter specific accumulation” value at OATP1B1 (setting [7]) is given as 49.83 ± 2.48 % of control; on OATP1B1 (setting [3]), 12.92 ± 0.41 % of control; on OATP1B1 (setting [8]), 16.93 ± 0.58 % of control; at OATP1B1 (setting [9]), 95.49 ± 3.39 % of control. Further, the Transporter specific accumulation at OAT3 (setting [2]) is listed as 10,323.00 ± 126.84 cpm; at OAT3 (setting [3]) it was 6,272.33 ± 68.97 cpm; at OATP1B1 (setting [4]), 2,252.33 ± 16.07 cpm; on OATP1B1 (setting [5]) it was 2,178.33 ± 50.48 cpm; at OATP1B1 (setting [2]), 2,303.00 ± 45.84 cpm; at OATP1B1 (setting [6]) it was 1,743.00 ± 16.09 cpm. The Transporter specific accumulation on OATP1B1 (setting [7]) is 1,123.33 ± 43.53 cpm; on OATP1B1 (setting [3]) it was 395.67 ± 8.05 cpm; on OATP1B1 (setting [8]) it was 381.67 ± 5.50 cpm; at OATP1B1 (setting [9]), 2,152.67 ± 36.09 cpm. Further, the figures for the Maximum % inhibition at OAT3 and on OATP1B1 were 42% and 83%, respectively. Also, the figures for the “maximum inhibition of OATP1B1-mediated E217βG accumulation” value on OATP1B1 (setting [1]) and on OATP1B1 (follow-up assay) were 87% and 83%, respectively. This molecule yielded an IC50 against OATP1B1 (follow-up assay, NSB-corrected concentrations) of 31.4 µM.
